# Like-named read-outs stand apart in the source and are kept apart here.
# What was measured:
# Type in all cases: cell-based
# B. catarrhalis W-0500 = experiment: MIC, agar plate dilution method; settings: Moraxella catarrhalis
# Procedure: (§1) The effect of the first aspect of the present invention resides in the creation of a novel and useful 16-membered macrolide derivative. Antimicrobial activities of the compounds of the present invention were determined by measuring minimum inhibitory concentration (MIC). Minimum inhibitory concentration was determined by the agar plate dilution method in the following manner.
# (§2) Test strains were subjected to seed culture using Sensitivity test broth (STB, Nissui Pharmaceutical) except that the strains belonging to the genus Streptococcus, Branhamella and Haemophilus were cultured on blood agar plate. A 5 μl portion of cell suspension of the test strains having about 10^6 CFU/ml was inoculated into Sensitivity disk agar (SDA, Nissui Pharmaceutical) supplemented with 5% horse blood and incubated at 37° C. for 20 hours. Then, MIC was measured. […] Antimicrobial activities in vitro of the compounds (1) and (2) are shown in Table 1, and those of the compounds (3) and (4) in Table 3.
# B. catarrhalis W-0506 = experiment: MIC, agar plate dilution method; settings: Moraxella catarrhalis
# Procedure: as §1, §2
# E. coli NIHJ JC-2 = experiment: MIC, agar plate dilution method; settings: Escherichia coli, NIHJJC2, 20 h, 37° C., SDA with 5% horse blood, read-out: Antimicrobial activity (MIC)
# Procedure: as §1, §2
# E. faecalis W-73 = experiment: MIC, agar plate dilution method; settings: Enterococcus faecalis, W73, 20 h, read-out: Antimicrobial activity (MIC)
# Procedure: as §1, §2
# H. influenzae Type b = experiment: MIC, agar plate dilution method; settings: Haemophilus influenzae
# Procedure: as §1, §2
# K. pneumoniae PCI602 = experiment: MIC, agar plate dilution method; settings: Klebsiella pneumoniae, 37° C., SDA with 5% horse blood, read-out: Antimicrobial activity (MIC)
# Procedure: as §1, §2
# M. luteus ATCC9341 = experiment: MIC, agar plate dilution method; settings: Micrococcus luteus
# Procedure: as §1, §2
# S. aureus 209P JC-1 = experiment: MIC, agar plate dilution method; settings: Staphylococcus aureus, 209P, 20 h
# Procedure: as §1, §2
# S. aureus M126 = experiment: MIC, agar plate dilution method; settings: Staphylococcus aureus, 37° C., 20 hours, SDA with 5% horse blood, read-out: Antimicrobial activity (MIC)
# Procedure: as §1, §2
# S. aureus M133 = experiment: MIC, agar plate dilution method; settings: Staphylococcus aureus, M133, 20 h
# Procedure: as §1, §2
# S. aureus MS15009/pMS98 = experiment: MIC, agar plate dilution method; settings: Staphylococcus aureus, MS15009/PMS98, 20 h, read-out: Antimicrobial activity (MIC), 37° C., 20 hours, SDA with 5% horse blood
# Procedure: as §1, §2
# S. aureus MS15009/pMS99 = experiment: MIC, agar plate dilution method; settings: Staphylococcus aureus, MS15009/PMS99, 20 h, read-out: Antimicrobial activity (MIC)
# Procedure: as §1, §2
# S. aureus MS15026 = experiment: MIC, agar plate dilution method; settings: Staphylococcus aureus, 37° C., 20 hours, SDA with 5% horse blood, read-out: Antimicrobial activity (MIC)
# Procedure: as §1, §2
# S. aureus MS15027 = experiment: MIC, agar plate dilution method; settings: Staphylococcus aureus
# Procedure: as §1, §2
# S. epidermidis ATCC14990 = experiment: MIC, agar plate dilution method; settings: Staphylococcus epidermidis
# Procedure: as §1, §2
# S. pneumoniae IP692 = experiment: MIC, agar plate dilution method; settings: Streptococcus pneumoniae, IP692, 20 h
# Procedure: as §1, §2
# S. pneumoniae Type 1 = experiment: MIC, agar plate dilution method; settings: Streptococcus pneumoniae
# Procedure: as §1, §2
# S. pyogenes Cook = experiment: MIC, agar plate dilution method; settings: Streptococcus pyogenes; 37° C., 20 hours, SDA with 5% horse blood; read-out: Antimicrobial activity (MIC)
# Procedure: as §1, §2
# test strains = experiment: Antimicrobial activity in vitro, test strains overall; settings: for antimicrobial activities compared with starting materials (1), (2) and (33): 9-O-acylated vs free 9-hydroxyl; for antimicrobial activities compared with compound (1): vs compound (1)
# Procedure: as §1, §2
# [1] = system: clinically important Gram-positive bacteria; experiment: Antimicrobial activity / growth inhibition
# Procedure: as §1, §2
# [2] = W0500, 37° C., 20 hours, SDA with 5% horse blood, read-out: Antimicrobial activity (MIC)
# [3] = W0506, 37° C., 20 hours, SDA with 5% horse blood, read-out: Antimicrobial activity (MIC)
# [4] = 20 h, read-out: Antimicrobial activity (MIC), 37° C., 20 hours, SDA with 5% horse blood
# [5] = ATCC9341, 37° C., 20 hours, SDA with 5% horse blood, read-out: Antimicrobial activity (MIC)
# [6] = read-out: Antimicrobial activity (MIC), 37° C., 20 hours, SDA with 5% horse blood
# [7] = 37° C., 20 hours, SDA with 5% horse blood, read-out: Antimicrobial activity (MIC)
# [8] = MS15027, 20 h, read-out: Antimicrobial activity (MIC), 37° C., 20 hours, SDA with 5% horse blood
# [9] = ATCC14990, 37° C., 20 hours, SDA with 5% horse blood, read-out: Antimicrobial activity (MIC)
# [10] = TYPE1, 37° C., 20 hours, SDA with 5% horse blood, read-out: Antimicrobial activity (MIC)
# [11] = ATCC9341, 20 h, read-out: Antimicrobial activity (MIC), 37° C., 20 hours, SDA with 5% horse blood
# [12] = MS15027, 37° C., 20 hours, SDA with 5% horse blood, read-out: Antimicrobial activity (MIC)
# [13] = ATCC14990, 20 h, read-out: Antimicrobial activity (MIC), 37° C., 20 hours, SDA with 5% horse blood
# [14] = TYPE1, 20 h, read-out: Antimicrobial activity (MIC), 37° C., 20 hours, SDA with 5% horse blood
SMILES,MIC (B. catarrhalis W-0500; [2]),MIC (B. catarrhalis W-0506; [3]),MIC (E. coli NIHJ JC-2),MIC (H. influenzae Type b; [4]),"MIC (K. pneumoniae PCI602; PCI602, 20 h)",MIC (M. luteus ATCC9341; [5]),MIC (S. aureus M126),MIC (S. aureus MS15009/pMS98),MIC (S. aureus MS15009/pMS99),MIC (S. aureus MS15026),MIC (S. aureus MS15027; [8]),MIC (S. epidermidis ATCC14990; [9]),MIC (S. pneumoniae Type 1; [10]),MIC (S. pyogenes Cook),"antimicrobial activities compared with starting materials (1), (2) and (33) (test strains)",further results
"CCC(=O)O[C@@H]1CC(=O)O[C@H](C)C/C=C/C=C/[C@H](O)[C@H](C)C[C@H](CC=O)[C@H](O[C@@H]2O[C@H](C)[C@@H](O[C@H]3C[C@@](C)(OC)[C@@H](O)[C@H](C)O3)[C@H](N(C)C)[C@H]2O)[C@H]1OC [(3), 3""-O-methylmidecamycin M1]",3.13 µg/mL,3.13 µg/mL,> 100 µg/mL,50 µg/mL,> 100 µg/mL,0.1 µg/mL,> 100 µg/mL,0.78 µg/mL,> 100 µg/mL,> 100 µg/mL,0.78 µg/mL,1.56 µg/mL,0.1 µg/mL,0.2 µg/mL,–,"MIC (E. faecalis W-73): 0.78 µg/mL; MIC (S. aureus 209P JC-1; [6]): 0.39 µg/mL; MIC (S. aureus M133; [7]): 1.56 µg/mL; MIC (S. pneumoniae IP692; [7]): 0.1 µg/mL; improvement of MIC values over corresponding compounds with free 3""-hydroxyl (midecamycin M1, leucomycin V) (test strains; most of the test strains): improved two to three times; antimicrobial activities in comparison with midecamycin M1 (test strains; presumed in vivo metabolite of compound (5)): superior antimicrobial activities; antimicrobial activities (in words) [1]: strong antimicrobial activities"
"CCC(=O)O[C@H]1[C@H](C)O[C@@H](O[C@H]2[C@H](N(C)C)[C@@H](O)[C@H](O[C@H]3[C@@H](CC=O)C[C@@H](C)[C@@H](O)/C=C/C=C/C[C@@H](C)OC(=O)C[C@@H](O)[C@@H]3OC)O[C@@H]2C)C[C@@]1(C)O [LM-A7, leucomycin A7, reference compound]",0.78 µg/mL,0.78 µg/mL,> 100 µg/mL,50 µg/mL,> 100 µg/mL,0.05 µg/mL,> 100 µg/mL,–,> 100 µg/mL,> 100 µg/mL,3.13 µg/mL,0.39 µg/mL,0.39 µg/mL,0.39 µg/mL,–,"MIC (B. catarrhalis W-0500; W0500, 20 h, read-out: Antimicrobial activity (MIC), 37° C., 20 hours, SDA with 5% horse blood): 12.5 µg/mL; MIC (B. catarrhalis W-0506; W0506, 20 h, read-out: Antimicrobial activity (MIC), 37° C., 20 hours, SDA with 5% horse blood): 12.5 µg/mL; MIC (H. influenzae Type b; [7]): 6.25 µg/mL; MIC (M. luteus ATCC9341; [11]): 0.2 µg/mL; MIC (S. aureus MS15027; [12]): 0.39 µg/mL; MIC (S. epidermidis ATCC14990; [13]): 3.13 µg/mL; MIC (S. pneumoniae Type 1; [14]): 0.2 µg/mL"
"CCCC(=O)O[C@H]1[C@H](C)O[C@@H](O[C@H]2[C@H](N(C)C)[C@@H](O)[C@H](O[C@H]3[C@@H](CC=O)C[C@@H](C)[C@@H](OC(=O)CC)/C=C/C=C/C[C@@H](C)OC(=O)C[C@@H](O)[C@@H]3OC)O[C@@H]2C)C[C@@]1(C)OC [(40), 9-O-propionyl-3""-O-methylleucomycin A5]",–,–,–,–,–,–,–,–,–,–,–,–,–,–,strong antimicrobial activities by themselves though slightly lower than those of their starting materials,–
"CCCC(=O)O[C@H]1[C@H](C)O[C@@H](O[C@H]2[C@H](N(C)C)[C@@H](O)[C@H](O[C@H]3[C@@H](CC=O)C[C@@H](C)[C@@H](OC(C)=O)/C=C/C=C/C[C@@H](C)OC(=O)C[C@@H](O)[C@@H]3OC)O[C@@H]2C)C[C@@]1(C)OC [(39), 9-O-acetyl-3""-O-methylleucomycin A5]",–,–,–,–,–,–,–,–,–,–,–,–,–,–,strong antimicrobial activities by themselves though slightly lower than those of their starting materials,–
"CCOC(C)O[C@H]1/C=C/C=C/C[C@@H](C)OC(=O)C[C@@H](OC(=O)CC)[C@H](OC)[C@@H](O[C@@H]2O[C@H](C)[C@@H](O[C@H]3C[C@@](C)(OC)[C@@H](OC(=O)CC)[C@H](C)O3)[C@H](N(C)C)[C@H]2O)[C@@H](CC=O)C[C@H]1C (single isomer, unassigned) [(16H)]",–,–,–,–,–,–,–,–,–,–,–,–,–,–,–,antimicrobial activities compared with compound (1) (test strains): inferior to those of the compound (1)
"CCC(=O)O[C@H]1[C@H](C)O[C@@H](O[C@H]2[C@H](N(C)C)[C@@H](O)[C@H](O[C@H]3[C@@H](CC=O)C[C@@H](C)[C@@H](OC(C)=O)/C=C/C=C/C[C@@H](C)OC(=O)C[C@@H](O)[C@@H]3OC)O[C@@H]2C)C[C@@]1(C)OC [(6), 9-O-acetyl-3""-O-methylleucomycin A7]",–,–,–,–,–,–,–,–,–,–,–,–,–,–,strong antimicrobial activities by themselves though slightly lower than those of their starting materials,–
"CCC(=O)O[C@@H]1CC(=O)O[C@H](C)C/C=C/C=C/[C@H](O)[C@H](C)C[C@H](CC=O)[C@H](O[C@@H]2O[C@H](C)[C@@H](O[C@H]3C[C@@](C)(O)[C@@H](O)[C@H](C)O3)[C@H](N(C)C)[C@H]2O)[C@H]1OC [MDM-M1, midecamycin M1, reference compound]",25 µg/mL,25 µg/mL,> 100 µg/mL,100 µg/mL,> 100 µg/mL,–,> 100 µg/mL,6.25 µg/mL,> 100 µg/mL,> 100 µg/mL,6.25 µg/mL,–,–,1.56 µg/mL,–,MIC (E. faecalis W-73): 12.5 µg/mL; MIC (M. luteus ATCC9341; [11]): 0.39 µg/mL; MIC (S. aureus 209P JC-1; [6]): 6.25 µg/mL; MIC (S. aureus M133; [6]): 12.5 µg/mL; MIC (S. epidermidis ATCC14990; [13]): 12.5 µg/mL; MIC (S. pneumoniae IP692; [6]): 0.78 µg/mL; MIC (S. pneumoniae Type 1; [14]): 0.78 µg/mL
"CCC(=O)O[C@@H]1CC(=O)O[C@H](C)C/C=C/C=C/[C@H](O)[C@H](C)C[C@H](CC=O)[C@H](O[C@@H]2O[C@H](C)[C@@H](O[C@H]3C[C@@](C)(O)[C@@H](OC(=O)CC)[C@H](C)O3)[C@H](N(C)C)[C@H]2O)[C@H]1OC [MDM, midecamycin A1, reference compound]",3.13 µg/mL,3.13 µg/mL,–,–,–,0.05 µg/mL,> 100 µg/mL,0.39 µg/mL,> 100 µg/mL,> 100 µg/mL,–,0.78 µg/mL,0.39 µg/mL,–,–,"MIC (E. faecalis W-73; 37° C., 20 hours, SDA with 5% horse blood): 3.13 µg/mL; MIC (H. influenzae Type b; [7]): 25 µg/mL; MIC (K. pneumoniae PCI602; PCI602, 20 hours): > 100 µg/mL; MIC (S. aureus 209P JC-1; [7]): 0.39 µg/mL; MIC (S. aureus M133; [7]): 0.78 µg/mL; MIC (S. aureus MS15027; [12]): 0.78 µg/mL; MIC (S. pneumoniae IP692; [7]): 0.39 µg/mL"
"CCOC(C)O[C@H]1/C=C/C=C/C[C@@H](C)OC(=O)C[C@@H](OC(=O)CC)[C@H](OC)[C@@H](O[C@@H]2O[C@H](C)[C@@H](O[C@H]3C[C@@](C)(OC)[C@@H](OC(=O)CC)[C@H](C)O3)[C@H](N(C)C)[C@H]2O)[C@@H](CC=O)C[C@H]1C (single isomer, unassigned) [(16L)]",–,–,–,–,–,–,–,–,–,–,–,–,–,–,–,antimicrobial activities compared with compound (1) (test strains): inferior to those of the compound (1)
